Reference: PubChem BioAssay AID330 (DTP/NCI, 2004)
“And” between values parts separate entries of the source, which are not always exact repeats. Identical values can stand only once. Inconclusive results and toxic doses are left out. Rule for the calls: active = survival T/C of 150% or more; inactive = T/C below 125% in these data. Peptide text beside a SMILES is read from it. * marks the point of attachment. Boc = CC(C)(C)OC(=O)*

Tested on: P388 leukemia ip, CD2F1 mice, survival T/C
Test: NCI In Vivo Anticancer Drug Screen. Data for tumor model P388 Leukemia (intraperitoneal) in CD2F1 (CDF1) mice
Conditions: endpoint: median survival time, higher = longer survival
In short: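 Mice carrying the transplanted tumor received test compound or vehicle. Survival was recorded in each group, and the value is the treated-group measurement divided by that of the vehicle-treated control group.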

[1] = dose: 50.0 mg/kg/injection, schedule: Q01DX009 (ip), vehicle: saline with Tween-80
[2] = dose: 100.0 mg/kg/injection, schedule: Q01DX009 (ip), vehicle: saline with Tween-80
[3] = dose: 200.0 mg/kg/injection, schedule: Q01DX009 (ip), vehicle: saline with Tween-80
[4] = dose: 100.0 mg/kg/injection, schedule: Q01DX009 (ip), vehicle: saline
[5] = dose: 200.0 mg/kg/injection, schedule: Q01DX009 (ip), vehicle: saline
[6] = dose: 50.0 mg/kg/injection, schedule: Q01DX005 (ip), vehicle: Klucel (hydroxypropylcellulose) (HPC)
[7] = dose: 100.0 mg/kg/injection, schedule: Q01DX005 (ip), vehicle: Klucel (hydroxypropylcellulose) (HPC)
[8] = dose: 50.0 mg/kg/injection, schedule: Q01DX009 (ip), vehicle: saline
[9] = dose: 200.0 mg/kg/injection, schedule: Q01DX005 (ip), vehicle: Klucel (hydroxypropylcellulose) (HPC)

Measured: T/C

COc1cccc2c1C(=O)c1c(O)c3c(c(O)c1C2=O)C[C@@H](C(C)=O)C[C@@H]3OC1CC(N)C(O)C(C)O1 (some centres not stated)
inactive: dose: 6.25 mg/kg/injection, schedule: Q04DX003 (ip), vehicle: water 109 % of control | dose: 12.5 mg/kg/injection, schedule: Q04DX003 (ip), vehicle: water 120 % of control | dose: 25.0 mg/kg/injection, schedule: Q04DX003 (ip), vehicle: water 113 % of control | dose: 50.0 mg/kg/injection, schedule: Q04DX003 (ip), vehicle: water 120 % of control | dose: 100.0 mg/kg/injection, schedule: Q04DX003 (ip), vehicle: water 93 % of control

CC(=O)NC1C(Nc2ccc(S(=O)(=O)Nc3cc(C)nc(C)n3)cc2)OC(CO)C(O)C1O (configuration not stated)
inactive: dose: 50.0 mg/kg/injection, schedule: Q01DX005 (ip), vehicle: saline 108 % of control | dose: 100.0 mg/kg/injection, schedule: Q01DX005 (ip), vehicle: saline 98 % of control | dose: 200.0 mg/kg/injection, schedule: Q01DX005 (ip), vehicle: saline 101 % of control

CCN(Cc1ccc(C(=O)OC)cc1)c1cccc(NC(C)=O)c1
inactive: [1] 98 % of control | [2] 100 % of control | [3] 99 % of control

Cc1cc2cc(N)ccc2[se]1
inactive: dose: 50.0 mg/kg/injection, schedule: Q01DX009 (ip), vehicle: suspension in saline 98 % of control | [4] 94 % of control | dose: 100.0 mg/kg/injection, schedule: Q01DX009 (ip), vehicle: suspension in saline 108 % of control | [5] 89 % of control | dose: 200.0 mg/kg/injection, schedule: Q01DX009 (ip), vehicle: suspension in saline 101 % of control

CN(C)NC(=S)SCCC(=O)O
inactive: dose: 50.0 mg/kg/injection, schedule: Q01DX009 (ip), vehicle: Klucel (hydroxypropylcellulose) (HPC) 99 % of control | dose: 100.0 mg/kg/injection, schedule: Q01DX009 (ip), vehicle: Klucel (hydroxypropylcellulose) (HPC) 96 % of control | dose: 200.0 mg/kg/injection, schedule: Q01DX009 (ip), vehicle: Klucel (hydroxypropylcellulose) (HPC) 92 % of control

CC(C)N(C(C)C)P1(=NC(C)(C)C)N(C(C)(C)C)P(=NC(C)(C)C)(N(C(C)C)C(C)C)N1C(C)(C)C (configuration not stated)
inactive: dose: 12.5 mg/kg/injection, schedule: Q01DX005 (ip), vehicle: Klucel (hydroxypropylcellulose) (HPC) 107 % of control | dose: 25.0 mg/kg/injection, schedule: Q01DX005 (ip), vehicle: Klucel (hydroxypropylcellulose) (HPC) 104 % of control | [6] 100 % of control and 102 % of control | [7] 102 % of control

O=C(CCl)N1c2ccccc2Sc2ccc(Cl)cc21
inactive: dose: 3.13 mg/kg/injection, schedule: Q01DX009 (ip), vehicle: water 117 % of control | dose: 6.25 mg/kg/injection, schedule: Q01DX009 (ip), vehicle: water 117 % of control | dose: 12.5 mg/kg/injection, schedule: Q01DX009 (ip), vehicle: water 111 % of control

Nc1nc(N)nc(N)n1 (tested in a mixture with another compound)
inactive: [1] 98 % of control | [2] 92 % of control | [3] 88 % of control

O=C(O)/C=C(/C(=O)O)C12CCN3CC4=CCOC5CC(=O)NC1C5C4CC32 (configuration not stated)
inactive: dose: 60.0 mg/kg/injection, schedule: Q01DX005 (ip), vehicle: Klucel (hydroxypropylcellulose) (HPC) 97 % of control | dose: 120.0 mg/kg/injection, schedule: Q01DX005 (ip), vehicle: Klucel (hydroxypropylcellulose) (HPC) 106 % of control | dose: 240.0 mg/kg/injection, schedule: Q01DX005 (ip), vehicle: Klucel (hydroxypropylcellulose) (HPC) 110 % of control

COc1cc2cc(c1Cl)N(C)C(=O)CC(OC(=O)C(C)C)C1(C)OC1C(C)C1CC(O)(NC(=O)O1)C(OC)/C=C/C=C(C)C2 (configuration not stated)
inactive: dose: 3.1 micrograms/kg/injection, schedule: Q01DX009 (ip), vehicle: saline + alcohol 114 % of control | dose: 6.2 micrograms/kg/injection, schedule: Q01DX009 (ip), vehicle: saline + alcohol 119 % of control | dose: 6.25 micrograms/kg/injection, schedule: Q01DX009 (ip), vehicle: saline + alcohol 115 % of control | dose: 100.0 micrograms/kg/injection, schedule: Q01DX009 (ip), vehicle: saline + alcohol 106 % of control and 86 % of control | dose: 200.0 micrograms/kg/injection, schedule: Q01DX009 (ip), vehicle: saline + alcohol 94 % of control

Cc1cc([N+](=O)[O-])c(Cl)cc1NS(=O)(=O)c1ccccc1
inactive: dose: 50.0 mg/kg/injection, schedule: Q04DX003 (ip), vehicle: saline with Tween-80 100 % of control | dose: 100.0 mg/kg/injection, schedule: Q04DX003 (ip), vehicle: saline with Tween-80 95 % of control

C/C(=C/C(=O)O)c1ccc([N+](=O)[O-])cc1
inactive: dose: 60.0 mg/kg/injection, schedule: Q01DX005 (ip), vehicle: saline with Tween-80 94 % of control | dose: 120.0 mg/kg/injection, schedule: Q01DX005 (ip), vehicle: saline with Tween-80 100 % of control | dose: 240.0 mg/kg/injection, schedule: Q01DX005 (ip), vehicle: saline with Tween-80 101 % of control

Cc1cc2ccccc2nc1Cl
inactive: dose: 60.0 mg/kg/injection, schedule: Q01DX005 (ip), vehicle: saline + Tween-80 + alcohol 100 % of control | dose: 120.0 mg/kg/injection, schedule: Q01DX005 (ip), vehicle: saline + Tween-80 + alcohol 104 % of control | dose: 240.0 mg/kg/injection, schedule: Q01DX005 (ip), vehicle: saline + Tween-80 + alcohol 104 % of control

CCCCC(CCCCCC(CCCC)C1NC(C)Cc2cc(OC)c(OC)cc21)C1NC(C)Cc2cc(OC)c(OC)cc21 (configuration not stated)
inactive: dose: 6.25 mg/kg/injection, schedule: Q01DX005 (ip), vehicle: saline 99 % of control | dose: 12.5 mg/kg/injection, schedule: Q01DX005 (ip), vehicle: saline 105 % of control | dose: 25.0 mg/kg/injection, schedule: Q01DX005 (ip), vehicle: saline 90 % of control

BrCC1(CBr)OCCO1
inactive: [1] 106 % of control

C=C(C)C1C2CC3(C)C4(CO4)C4OC4C3(O)C1C(=O)O2 (configuration not stated)
inactive: dose: 0.31 mg/kg/injection, schedule: Q01DX005 (ip), vehicle: Klucel (hydroxypropylcellulose) (HPC) 97 % of control | dose: 0.62 mg/kg/injection, schedule: Q01DX005 (ip), vehicle: Klucel (hydroxypropylcellulose) (HPC) 100 % of control | dose: 1.25 mg/kg/injection, schedule: Q01DX005 (ip), vehicle: Klucel (hydroxypropylcellulose) (HPC) 102 % of control

C=C(c1ccccc1)C1(O)CCCCC1N(C)C (configuration not stated)
inactive: dose: 25.0 mg/kg/injection, schedule: Q04DX002 (ip), vehicle: saline with Tween-80 102 % of control | dose: 50.0 mg/kg/injection, schedule: Q04DX002 (ip), vehicle: saline with Tween-80 100 % of control | dose: 100.0 mg/kg/injection, schedule: Q04DX002 (ip), vehicle: saline with Tween-80 94 % of control

C=C1SC(=Nc2cccc(OC)c2)N(c2nc(Cl)nc(Cl)n2)C12CCCCC2
inactive: [8] 100 % of control | [4] 101 % of control | [5] 100 % of control

C1CCC2CC3NC3CC2C1 (configuration not stated)
inactive: [8] 101 % of control | [4] 105 % of control | [5] 101 % of control

CCCCCCCCCCS(=O)(=O)OCCCCOS(=O)(=O)CCCCCCCCCC
inactive: [6] 103 % of control | [7] 103 % of control | [9] 93 % of control

COC(=O)C(CO)NC(=O)C(Cc1ccccc1)NC(=O)OC(C)(C)C (stereo not drawn) (Boc-Phe-Ser-OMe; configuration not given here)
inactive: [6] 99 % of control | [7] 105 % of control | [9] 100 % of control
